Results: patent US11291655B2, “RAD51 inhibitors” (Cyteir Therapeutics, Inc., priority 2017, dated 2022)

Test system: Daudi Cell Culture
Test: Compound primary screening in Daudi cell culture
Format: cell-based
Conditions: Homo sapiens, 168 h; Daudi cells, 1250 cells per well, reads on Day 7
Protocol: Compound Primary Screening
1. Materials and Supplies
Plastic ware and consumables needed for this experiment include: Cell Culture media; Evaporation Buffer media; 100% DMSO; 96 well U-bottom sterile culture plates; 250 mL bottle; 1.5 mL Opaque amber epi tubes; Epi Tube rack; 300 mL reservoirs; 25 mL reservoir; 25 mL serological pipette tips; 5 mL serological pipette tips P1000 Pipette Tips; and P200 Pipette Tips.
Equipment needed for this experiment include: Viaflo 384 liquid handler; Eppendorf serological pipette; Eppendorf P1000 Pipette; and Eppendorf P200 Pipette
Daudi Cell Culture is also needed for this experiment.
Lastly, compounds (e.g., the compounds of this invention) to be tested are needed.
All steps were performed in a sterile environment inside the Biosafety cabinet.
A 96 well u-bottom plate was prepared by writing the experiment number, plate number, date and initials in the top right corner of the plate lid. With a sterile 300 ml reservoir, and 25 ml serological pipette, evaporation buffer media was pipetted into reservoir in 25 ml increments. Using the liquid handler, 150 ul of evaporation buffer media was pipetted from reservoir into rows A and H, and Columns 1 and 12 of the 96 well u-bottom plate. Cell cultures were counted to obtain the density of cells per ml, and the culture viability. The cell density information was used to obtain 1,000,000 cells from culture using a 5 mL serological pipette into an epi tube. The cell density information from the culture was used to calculate the number of cells and volume of media needed for the assay to seed 1250 cells in 130 ul of media per available culture well in the 96 well u-bottom plate. Rows B through F were used for cells (50 wells in total), with row G left for an empty media control. The calculation was overestimated by 10 mL to account for the dead volume in the 300 ml reservoir. Once the media volume was calculated, the appropriate volume of media was pipetted in 25 mL increments into the 250 mL bottle using a 25 mL serological pipette. The 250 ml bottle was capped tightly, and placed into a 37° C. water bath for 2 minutes. While the culture media was warming, 10 mL of fresh media was pipetted from the 500 mL culture media bottle into a sterile 25 mL reservoir. Using the Eppendorf multichannel pipette, 130 ul of media was pipetted from the 25 mL reservoir into row G of the 96 well u-bottom plate. Once the 250 mL bottle of media was warmed, the volume of culture needed was pipetted into the bottle, and mixed gently with a 25 mL serological pipette as to not create bubbles, and then the contents of the bottle were pipetted into a new 300 mL reservoir. Using the liquid handler, 130 ul of culture was pipetted from the 300 mL reservoir into rows B through F of the 96 well u-bottom plate. Once the culture was added, the plate was placed into a 37° C. incubator until the compound master plate was prepared for use.
Two 96 well u-bottom plates were prepared by writing the master plate name in the upper right corner of the plate lid. Labeling one DMSO master and the other Media Master. The compounds of interest were obtained from the laboratory freezer, and placed into a 25 well storage box with a lid, and set the box aside. The compounds were vortexed after thawing but before use. Using an automatic multichannel pipette, 20 ul of 100% DMSO was pipetted into wells B3-B11 through G3-G11 of the DMSO master plate. For each compound on the master plate, 50 ul of the compound were pipetted in the appropriate well of row 2 (reference plate map to determine appropriate well). A serial dilution was prepared beginning by aspirating 20 ul from row 2 and mixing with row 3, repeating until row 11 was reached. Using the liquid handler, 194 ul of Daudi media was dispensed into wells B2-B11 through G2-G11 of the Media master plate. Using the liquid handler, 6 ul from the DMSO master plate was aspirated and dispensed into the media master plate, mixing 100 ul twice. […]

EC50	Compound
> 10 µM	CC(=O)Nc1ccc(-c2cnc(-c3ccc(NC(=S)NC(C)C)cc3)s2)c(S(=O)(=O)N[C@@H](C)CO)c1 [Compound D5]
< 1 µM	CC(C)OC(=O)Nc1ccc(-c2ncc(-c3ccc(NC(=O)c4ccccc4)cc3S(=O)(=O)NC(C)(C)C)s2)cc1 [Compound H9]
> 10 µM	CC(=O)Nc1ccc(-c2cnc(-c3ccc(NC(=S)NC(C)C)cc3)s2)c(S(=O)(=O)NCCOCCO)c1 [Compound D26]
< 1 µM	CC(C)OC(=O)Nc1ccc(-c2ncc(-c3ccc(NC(=O)OC(C)c4ccccc4)cc3S(=O)(=O)NC(C)(C)C)s2)cc1 (stereo not drawn) [Compound B15]
< 1 µM	Cc1cc(NC(=O)OC(C)C)ccc1-c1ncc(-c2ccc(NC(=O)OC(C)C)cc2S(=O)(=O)NC(C)(C)C)s1 [Compound R1]
> 10 µM	COCCNS(=O)(=O)c1cc(NC(C)=O)ccc1-c1cnc(-c2ccc(NC(=S)NC(C)C)cc2)s1 [Compound D27]
< 10 µM	CC(C)N(C)C(=O)Nc1ccc(-c2ncc(-c3ccc(N4CCCC4=O)cc3S(=O)(=O)NC(C)(C)C)s2)cc1 [Compound A7]
< 10 µM	CC(C)OC(=O)Nc1ccc(-c2ncc(-c3ccc(NC(=O)OCc4ncc[nH]4)cc3S(=O)(=O)NC(C)(C)C)s2)cc1 [Compound B14]
< 1 µM	CC(C)OC(=O)Nc1ccc(-c2ncc(-c3ccc(NC(=O)OCc4ccccc4)cc3S(=O)(=O)NC(C)(C)C)s2)cc1 [Compound H5]
< 1 µM	COCCOC(=O)Nc1ccc(-c2cnc(-c3ccc(NC(=O)OC(C)C)cc3)s2)c(S(=O)(=O)NC(C)(C)C)c1 [Compound B2]
> 10 µM	CC(C)OC(=O)Nc1ccc(-c2ncc(-c3ccc(C(=O)NCc4ccccc4)cc3S(=O)(=O)NC(C)(C)C)s2)cc1 [Compound K1]
> 10 µM	COC(=O)[C@H](C)NS(=O)(=O)c1cc(NC(C)=O)ccc1-c1cnc(-c2ccc(NC(=S)NC(C)C)cc2)s1 [Compound D21]
> 10 µM	CC(C)OC(=O)Nc1ccc(-c2ncc(-c3ccc(N4CC(Cc5ccccc5)OC4=O)cc3S(=O)(=O)NC(C)(C)C)s2)cc1 (stereo not drawn) [Compound J27, isopropyl (4-(5-(4-(5-benzyl-2-oxooxazolidin-3-yl)-2-(N-(tert-butyl)sulfamoyl)phenyl)thiazol-2-yl)phenyl)carbamate]
< 5 µM	CC(C)OC(=O)Nc1ccc(-c2ncc(-c3ccc(-c4cnc[nH]4)cc3S(=O)(=O)NC(C)(C)C)s2)cc1 [Compound A6]
< 5 µM	CC(=O)Nc1ccc(-c2cnc(-c3ccc(NC(=O)OCC(C)C)cc3)s2)c(S(=O)(=O)NC(C)(C)C)c1 [Compound G1]
< 5 µM	CCNc1ccc(-c2cnc(-c3ccc(NC(=O)OC(C)C)cc3)s2)c(S(=O)(=O)NC(C)(C)C)c1 [Compound I1, isopropyl N-[4-[5-[2-(tert-butylsulfamoyl)-4-(ethylamino)phenyl]thiazol-2-yl]phenyl]carbamate]

EC50	Compound
< 10 µM	CC(C)OC(=O)Nc1ccc(-c2ncc(-c3ccc(CNS(=O)(=O)c4ccccc4)cc3S(=O)(=O)NC(C)(C)C)s2)cc1 [Compound P6]
> 10 µM	CC(=O)Nc1ccc(-c2cnc(-c3ccc(NC(=O)CC(C)C)cc3)s2)c(S(=O)(=O)NC(C)(C)C)c1 [Compound G4]
< 10 µM	CC(C)NC(=S)Nc1ccc(-c2ncc(-c3ccc(NC(=O)NCc4cnc[nH]4)cc3S(=O)(=O)NC(C)(C)C)s2)cc1 [Compound N6]
< 5 µM	CC(=O)Nc1ccc(-c2cnc(-c3ccc(NC(=O)OC(C)(C)C)cc3)s2)c(S(=O)(=O)NC(C)(C)C)c1 [Compound G11, tert-butyl N-[4-[5-[4-acetamido-2-(tert-butylsulfamoyl)phenyl]thiazol-2-yl]phenyl]carbamate]
< 1 µM	CC(=O)Nc1ccc(-c2cnc(-c3ccc(NC(=S)NC(C)C)cc3)s2)c(S(=O)(=O)NCCCN(C)C)c1 [Compound D25]
> 10 µM	CCNS(=O)(=O)c1cc(NC(C)=O)ccc1-c1cnc(-c2ccc(NC(=S)NC(C)C)cc2)s1 [Compound D9]
< 10 µM	CC(=O)Nc1ccc(-c2cnc(-c3ccc(N)cc3)s2)c(S(=O)(=O)NC(C)(C)C)c1 [Compound A4]
< 10 µM	CC(C)OC(=O)Nc1ccc(-c2ncc(-c3ccc(CNC(=O)Cc4ccccc4)cc3S(=O)(=O)NC(C)(C)C)s2)cc1 [Compound O4]
> 10 µM	CC(=O)Nc1ccc(-c2cnc(-c3ccc(NC(=S)NC(C)C)cc3)s2)c(S(=O)(=O)N2CCCC2)c1 [Compound D13]
< 10 µM	CC(C)OC(=O)N(C)c1ccc(-c2ncc(-c3ccc(N4CCCC4=O)cc3S(=O)(=O)NC(C)(C)C)s2)cc1 [Compound J8, isopropyl N-[4-[5-[2-(tert-butylsulfamoyl)-4-(2-oxopyrrolidin-1-yl)phenyl]thiazol-2-yl]phenyl]-N-methyl-carbamate]
< 1 µM	C/C=C/COC(=O)Nc1ccc(-c2cnc(-c3ccc(NC(=O)OC(C)C)cc3)s2)c(S(=O)(=O)NC(C)(C)C)c1 [Compound B12]
> 10 µM	CC(=O)N(C)c1ccc(-c2cnc(-c3ccc(NC(=S)NC(C)C)cc3)s2)c(S(=O)(=O)NC(C)(C)C)c1 [Compound E15]
< 10 µM	CC(C)OC(=O)Nc1ccc(-c2ncc(-c3ccc(CNC(=O)C4CCNCC4)cc3S(=O)(=O)NC(C)(C)C)s2)cc1 [Compound O1]
< 1 µM	CC(C)OC(=O)Nc1ccc(-c2ncc(-c3ccc(NC(=O)OCc4nccs4)cc3S(=O)(=O)NC(C)(C)C)s2)cc1 [Compound B11]
> 10 µM	CC(=O)Nc1ccc(-c2cnc(-c3ccc(NC(=S)NC(C)C)cc3)s2)c(S(=O)(=O)N[C@H]2CC[C@H](O)CC2)c1 [Compound D7]

Compound	EC50
CC(C)NC(=S)Nc1ccc(-c2ncc(-c3ccc(N(C)C(=O)NCc4ccccc4)cc3S(=O)(=O)NC(C)(C)C)s2)cc1 [Compound Q3]	< 1 µM
CC(=O)Nc1ccc(-c2cnc(-c3cccc(NC(=O)OC(C)C)c3)s2)c(S(=O)(=O)NC(C)(C)C)c1 [Compound J14]	< 10 µM
CCOC(=O)Nc1ccc(-c2cnc(-c3ccc(NC(=S)NC(C)C)cc3)s2)c(S(=O)(=O)NC(C)(C)C)c1 [Compound L5]	< 5 µM
CC(=O)Nc1ccc(-c2cnc(-c3ccc(NC(=S)NCc4ccccc4)cc3)s2)c(S(=O)(=O)NC(C)(C)C)c1 [Compound L9]	< 5 µM
CC(C)OC(=O)Nc1ccc(-c2ncc(-c3ccc(N4CCCC4=O)cc3S(=O)(=O)NC(C)(C)C)s2)cc1F [Compound J9, isopropyl N-[4-[5-[2-(tert-butylsulfamoyl)-4-(2-oxopyrrolidin-1-yl)phenyl]thiazol-2-yl]-2-fluoro-phenyl]carbamate]	< 5 µM
CC(C)NC(=S)Nc1ccc(-c2ncc(-c3ccc(NC(=O)OCc4ccccc4)cc3S(=O)(=O)NC(C)(C)C)s2)cc1 [Compound L4]	> 10 µM
CC(C)NC(=S)Nc1ccc(-c2ncc(-c3ccc(NC(=O)c4ccccc4)cc3S(=O)(=O)NC(C)(C)C)s2)cc1 [Compound L6]	< 5 µM
CC(C)NC(=S)Nc1ccc(-c2ncc(-c3ccc(NC(=O)NCc4ccc(O)cc4)cc3S(=O)(=O)NC(C)(C)C)s2)cc1 [Compound N1, N-(tert-butyl)-5-(3-(4-hydroxybenzyl)ureido)-2-(2-(4-(3-isopropylthioureido)phenyl)thiazol-5-yl)benzenesulfonamide]	< 10 µM
CC(C)NC(=S)Nc1ccc(-c2ncc(-c3ccc(N4CCN(Cc5ccccc5)C4=O)cc3S(=O)(=O)NC(C)(C)C)s2)cc1 [Compound J22]	> 10 µM
CC(C)NC(=S)Nc1ccc(-c2ncc(-c3ccc(N(C)C(=O)N(C)Cc4ccccc4)cc3S(=O)(=O)NC(C)(C)C)s2)cc1 [Compound Q4]	< 1 µM
CC(=O)Nc1ccc(-c2cnc(-c3ccc(OC(=O)NC(C)C)cc3)s2)c(S(=O)(=O)NC(C)(C)C)c1 [Compound A5]	< 5 µM
